This note sets out measurements from patent US7109197B2, “N-phenyl-4-(4-pyridyl)-2-pyrimidineamine derivatives” (Syngenta Crop Protection, Inc., priority 2000, dated 2006).

Holding throughout (type): in vivo
Experiment [1] relates to Botrytis cinerea. Briefly: Assay B-8: Effect against Botrytis cinerea/tomato (Botrytis on tomatoes). As to conditions: Botrytis cinerea on tomato cv. Roter Gnom; 0.02% active substance, spray. On the procedure: Assay B-8: Effect Against Botrytis cinerea/Tomato (Botrytis on Tomatoes) 4 week old tomato plants cv. Roter Gnom are treated with the formulated testcompound 0.02% active substance) in a spray chamber. Two days after application tomato plants are inoculated by spraying a spore suspension (1×10^5 conidia/ml) on the test plants. After an incubation period of 4 days at 20° C. and 95% r. h. in a greenhouse the disease incidence is assessed.

Experiment [2] has as its system Botrytis cinerea. Briefly: Assay B-7: Botrytis cinerea/grape (Botrytis on grapes). The note with it: Botrytis cinerea on grape seedlings cv. Gutedel; 0.02% active substance, spray. On the procedure:
Assay B-7: Botrytis cinerea/Grape (Botrytis on Grapes) 5 week old grape seedlings cv. Gutedel are treated with the formulated testcompound (0.02% active substance) in a spray chamber. Two days after application grape plants are inoculated by spraying a spore suspension (1×10^6 conidia/ml) on the test plants. After an incubation period of 4 days at 21° C. and 95% r. h. in a greenhouse the disease incidence is assessed.

Experiment [3] relates to Pyrenophora teres (Helminthosporium). Briefly: Assay B-10: Effect against Pyrenophora teres (Helminthosporium)/barley (net blotch on barley). As to conditions: Pyrenophora teres on barley cv. Regina; 0.02% active substance, spray. On the procedure:
Assay B-10: Effect Against Pyrenophora teres (Helminthosporium)/Barley (Net Blotch on Barley) 1 week old barley plants cv. Regina are treated with a formulated testcompound (0.02% active substance) in a spray chamber. Two days after application barley plants are inoculated by spraying a spore suspension (3×10^4 conidia/ml) on the test plants. After an incubation period of 2 days at 20° C. and 95% r.h. plants are kept for 2 days at 20° C. and 60% r.h. in a greenhouse. The disease incidence is assessed 4 days after inoculation.

A further experiment has as its system Septoria nodorum. As to the kind of experiment: Assay B-12: Effect against Septoria nodorum/wheat (Septoria leaf spot on wheat). As to conditions: Septoria nodorum on wheat cv. Arina; 0.02% active substance, spray. Here is the method: Assay B-12: Effect Against Septoria nodorum/Wheat (Septoria Leaf Spot on Wheat) 1 week old wheat plants cv. Arina are treated with a formulated test compound (0.02% active substance) in a spray chamber. One day after application wheat plants are inoculated by spraying a spore suspension (5×10^5 conidia/ml) on the test plants. After an incubation period of 1 day at 20° C. and 95% r.h. plants are kept for 10 days at 20° C. and 60% r.h. in a greenhouse. The disease incidence is assessed 11 days after inoculation.

With `CO[Si](CCCNc1cc(-c2ccnc(Nc3cccc(Cl)c3)n2)ccn1)(OC)OC` [Compound 100], in the experiment on Botrytis cinerea [1], the B8 activity entry was “+ (the activity observed in the corresponding test system is 70% or more)”.
In the case of `CS(=O)(=O)O.Clc1cccc(Nc2nccc(-c3ccnc(NCCCn4ccnc4)c3)n2)c1` [Compound 49], in the experiment on Botrytis cinerea [2], the B7 activity result is on record as “+ (the activity observed in the corresponding test system is 70% or more)”. Also, in the experiment with Botrytis cinerea [1], the B8 activity result is on record as “+ (the activity observed in the corresponding test system is 70% or more)”. Also, the B10 activity result in experiment [3] was “+ (the activity observed in the corresponding test system is 70% or more)”. Also, the B12 activity result in the experiment on Septoria nodorum is given as “+ (the activity observed in the corresponding test system is 70% or more)”.
Consider `CC(CCc1ccccn1)Nc1cc(-c2ccnc(Nc3cccc(Cl)c3)n2)ccn1` (stereo not drawn) [Compound 71], for which, in experiment [3], the B10 activity entry was “+ (the activity observed in the corresponding test system is 70% or more)”. The B12 activity result in the experiment on Septoria nodorum is recorded as “+ (the activity observed in the corresponding test system is 70% or more)”.
For `Clc1cccc(Nc2nccc(-c3ccnc(NCCCOc4ncccn4)c3)n2)c1` [Compound 94], the B8 activity result with Botrytis cinerea [1] was “+ (the activity observed in the corresponding test system is 70% or more)”. The B10 activity entry in experiment [3] is reported as “+ (the activity observed in the corresponding test system is 70% or more)”.
With `CC(=O)OCCNc1cc(-c2ccnc(Nc3cccc(Cl)c3)n2)ccn1` [Compound 52], the B10 activity result in experiment [3] was “+ (the activity observed in the corresponding test system is 70% or more)”. In the experiment on Septoria nodorum, the B12 activity entry is “+ (the activity observed in the corresponding test system is 70% or more)”.
For the compound `CCCC(COC(C)=O)Nc1cc(-c2ccnc(Nc3cccc(Cl)c3)n2)ccn1` (stereo not drawn) [Compound 53], the B8 activity result in the experiment on Botrytis cinerea [1] is “+ (the activity observed in the corresponding test system is 70% or more)”.
Turning to `CCCCC(=O)Nc1cc(-c2ccnc(Nc3cccc(Cl)c3)n2)ccn1` [Compound 62], the B10 activity entry in experiment [3] was “+ (the activity observed in the corresponding test system is 70% or more)”. Further, the B12 activity result in the experiment on Septoria nodorum is reported as “+ (the activity observed in the corresponding test system is 70% or more)”.
On to `CC(O)CNc1cc(-c2ccnc(Nc3cccc(Cl)c3)n2)ccn1` (stereo not drawn) [Compound 76], for which the B10 activity result in experiment [3] is “+ (the activity observed in the corresponding test system is 70% or more)”. Further, the B12 activity result in the experiment on Septoria nodorum is listed as “+ (the activity observed in the corresponding test system is 70% or more)”.
`CS(=O)(=O)O.NCCCNc1cc(-c2ccnc(Nc3cccc(Cl)c3)n2)ccn1` [Compound 48]: the B8 activity result in the experiment with Botrytis cinerea [1] is recorded as “+ (the activity observed in the corresponding test system is 70% or more)”. In addition, the B10 activity result in experiment [3] was “+ (the activity observed in the corresponding test system is 70% or more)”. Besides, in the experiment with Septoria nodorum, the B12 activity result is “+ (the activity observed in the corresponding test system is 70% or more)”.
In the case of `Clc1cccc(Nc2nccc(-c3ccnc(NC4CCOC4)c3)n2)c1` (stereo not drawn) [Compound 2], the B10 activity result in experiment [3] is recorded as “+ (the activity observed in the corresponding test system is 70% or more)”. Further, in the experiment with Septoria nodorum, the B12 activity result is on record as “+ (the activity observed in the corresponding test system is 70% or more)”.
In the case of `CC(CCN(C)C)Nc1cc(-c2ccnc(Nc3cccc(Cl)c3)n2)ccn1` (stereo not drawn) [Compound 19], the B8 activity entry in the experiment on Botrytis cinerea [1] is “+ (the activity observed in the corresponding test system is 70% or more)”.
Consider `Clc1cccc(Nc2nccc(-c3ccnc(NCCc4ccccn4)c3)n2)c1` [Compound 90], for which the B8 activity entry in the experiment on Botrytis cinerea [1] was “+ (the activity observed in the corresponding test system is 70% or more)”. The B10 activity result in experiment [3] was “+ (the activity observed in the corresponding test system is 70% or more)”.
`CCN(COC)c1cc(-c2ccnc(Nc3cccc(Cl)c3)n2)ccn1` [Compound 98]: in experiment [3], the B10 activity result was “+ (the activity observed in the corresponding test system is 70% or more)”.
Take `NCCNc1cc(-c2ccnc(Nc3cccc(Cl)c3)n2)ccn1` [Compound 1]: the B10 activity entry in experiment [3] was “+ (the activity observed in the corresponding test system is 70% or more)”.
Turning to `Clc1cccc(Nc2nccc(-c3ccnc(NCc4ccco4)c3)n2)c1` [Compound 78], the B8 activity result with Botrytis cinerea [1] was “+ (the activity observed in the corresponding test system is 70% or more)”.
With `CCC(COC(C)=O)Nc1cc(-c2ccnc(Nc3cccc(Cl)c3)n2)ccn1` (stereo not drawn) [Compound 51], the B10 activity entry in experiment [3] was “+ (the activity observed in the corresponding test system is 70% or more)”. Moreover, the B12 activity entry in the experiment with Septoria nodorum is reported as “+ (the activity observed in the corresponding test system is 70% or more)”.
For `CCC(=O)OCCCNc1cc(-c2ccnc(Nc3cccc(Cl)c3)n2)ccn1` [Compound 106], the B8 activity result in the experiment on Botrytis cinerea [1] is reported as “+ (the activity observed in the corresponding test system is 70% or more)”. In experiment [3], the B10 activity entry is listed as “+ (the activity observed in the corresponding test system is 70% or more)”. The B12 activity entry with Septoria nodorum is given as “+ (the activity observed in the corresponding test system is 70% or more)”.
In the case of `O=C(Nc1cc(-c2ccnc(Nc3cccc(Cl)c3)n2)ccn1)C(F)(F)C(F)(F)F` [Compound 93], the B7 activity result in the experiment with Botrytis cinerea [2] is reported as “+ (the activity observed in the corresponding test system is 70% or more)”. The B8 activity result in the experiment on Botrytis cinerea [1] was “+ (the activity observed in the corresponding test system is 70% or more)”. For the same compound, in experiment [3], the B10 activity result was “+ (the activity observed in the corresponding test system is 70% or more)”.
As for `O=C(O)CNc1cc(-c2ccnc(Nc3cccc(Cl)c3)n2)ccn1` [Compound 3], the B8 activity result with Botrytis cinerea [1] is reported as “+ (the activity observed in the corresponding test system is 70% or more)”. For the same compound, the B10 activity result in experiment [3] is given as “+ (the activity observed in the corresponding test system is 70% or more)”. Further, the B12 activity entry in the experiment on Septoria nodorum is recorded as “+ (the activity observed in the corresponding test system is 70% or more)”.
In the case of `Clc1cccc(Nc2nccc(-c3ccnc(NCC4CCOC4)c3)n2)c1` (stereo not drawn) [Compound 84], in the experiment with Botrytis cinerea [1], the B8 activity result is recorded as “+ (the activity observed in the corresponding test system is 70% or more)”. Further, the B10 activity result in experiment [3] is given as “+ (the activity observed in the corresponding test system is 70% or more)”. In the experiment with Septoria nodorum, the B12 activity result is recorded as “+ (the activity observed in the corresponding test system is 70% or more)”.
For the compound `CC(CCn1ccnc1)Nc1cc(-c2ccnc(Nc3cccc(Cl)c3)n2)ccn1` (stereo not drawn) [Compound 16], the B8 activity result in the experiment on Botrytis cinerea [1] is “+ (the activity observed in the corresponding test system is 70% or more)”. Further, the B10 activity result in experiment [3] was “+ (the activity observed in the corresponding test system is 70% or more)”. The B12 activity result with Septoria nodorum was “+ (the activity observed in the corresponding test system is 70% or more)”.
On to `COC(CNc1cc(-c2ccnc(Nc3cccc(Cl)c3)n2)ccn1)OC` [Compound 87], for which the B10 activity result in experiment [3] was “+ (the activity observed in the corresponding test system is 70% or more)”. In addition, in the experiment with Septoria nodorum, the B12 activity entry is given as “+ (the activity observed in the corresponding test system is 70% or more)”.
With `C[S+]([O-])CCNc1cc(-c2ccnc(Nc3cccc(Cl)c3)n2)ccn1` (stereo not drawn) [Compound 74], in the experiment with Septoria nodorum, the B12 activity entry was “+ (the activity observed in the corresponding test system is 70% or more)”.
As to `Clc1cccc(Nc2nccc(-c3ccnc(NCc4cccnc4)c3)n2)c1` [Compound 102], the B8 activity entry in the experiment with Botrytis cinerea [1] is reported as “+ (the activity observed in the corresponding test system is 70% or more)”. For the same compound, the B10 activity result in experiment [3] is on record as “+ (the activity observed in the corresponding test system is 70% or more)”.
Consider `COCN(C)c1cc(-c2ccnc(Nc3cccc(Cl)c3)n2)ccn1` [Compound 91], for which, in experiment [3], the B10 activity result is recorded as “+ (the activity observed in the corresponding test system is 70% or more)”. Also, the B12 activity result with Septoria nodorum is “+ (the activity observed in the corresponding test system is 70% or more)”.
Regarding `CC(CCNc1cc(-c2ccnc(Nc3cccc(Cl)c3)n2)ccn1)n1ccnc1` (stereo not drawn) [Compound 36], the B10 activity result in experiment [3] was “+ (the activity observed in the corresponding test system is 70% or more)”.
With `CN(C)C=Nc1cc(-c2ccnc(Nc3cccc(Cl)c3)n2)ccn1` [Compound 97], the B8 activity entry with Botrytis cinerea [1] is “+ (the activity observed in the corresponding test system is 70% or more)”. Besides, in experiment [3], the B10 activity entry was “+ (the activity observed in the corresponding test system is 70% or more)”. The B12 activity result with Septoria nodorum is listed as “+ (the activity observed in the corresponding test system is 70% or more)”.
Take `Clc1cccc(Nc2nccc(-c3ccnc(NCc4ccccn4)c3)n2)c1` [Compound 79]: in the experiment on Botrytis cinerea [1], the B8 activity entry is listed as “+ (the activity observed in the corresponding test system is 70% or more)”. For the same compound, in experiment [3], the B10 activity result is listed as “+ (the activity observed in the corresponding test system is 70% or more)”.
As for `NCCCNc1cc(-c2ccnc(Nc3cccc(Cl)c3)n2)ccn1` [Compound 42], the B8 activity result in the experiment with Botrytis cinerea [1] is given as “+ (the activity observed in the corresponding test system is 70% or more)”. Also, the B10 activity result in experiment [3] is “+ (the activity observed in the corresponding test system is 70% or more)”. Moreover, the B12 activity result with Septoria nodorum was “+ (the activity observed in the corresponding test system is 70% or more)”.
